Data published in US9365618B2, “Synthetic peptide that induces expression of TNF receptor 2 and use thereof” (TOAGOSEI CO. LTD., priority 2011, dated 2016).
Where no end group is shown, it is not given here.

Tested on: TNFR2
Assay: TNFR2 expression-inducing activity against neuroblasts (neuro-2a, fluorescent antibody technique)
Type: cell-based, mouse
Settings: retinoic acid-differentiated neuro-2a cells, peptide 5 μM, two days incubation, control group set as 1
Description: With respect to each sample obtained in Example 1, the TNFR2 expression-inducing activity was tested against neuroblasts. The control group was supplied with no peptides. The test details are described below.
As the cells under test, a cell line (neuro-2a) established from a commercial mouse neuroblastoma was used. The cells were cultured beforehand in a DMEM medium (i.e., a Dulbecco MEM (DMEM medium, a Gibco product) containing 10% fetal bovine serum (FBS, a Gibco product), 2 mM of L-glutamine, 50 unit/mL of penicillin, and 50 μg/mL of streptomycin), and the number of cells per well in a 96-hole(well) plate was adjusted to approximately 5×10^3. The volume of the medium here was 100 μL/well. […]
Subsequently, the stock solution of one of the samples was added to the wells for each sample group to a peptide concentration in each well of 5 μM. […] After samples (synthetic peptides) were added as described above and continuously incubated further for two days, the expression/induction of TNFR1 and TNFR2 was evaluated according to the fluorescent antibody technique in the same manner as Example 2.
With the level of TNFR1 expression (i.e. fluorescence intensity) of the control group set as 1, relative values are shown. […] With the level of TNFR2 expression (i.e. fluorescence intensity) of the control group set as 1, relative values are shown.

## KKRTLRKNDRKKR (KKRTLRKNDRKKR-NH2; listed as Homo sapiens) [Sample 17, NoLS of human LIMK2]
  TNFR2 expression level (relative fluorescence intensity): at least 1.9
